Our source for the relative viability values is the supplement of paper PMC10307832.

What all share (assay): relative viability (nuclei count vs DMSO), 5 days (fraction); higher = more cells survive
Compound in the test “Pemetrexed + Phenformin”: Nc1nc2[nH]cc(CCc3ccc(C(=O)N[C@@H](CCC(=O)O)C(=O)O)cc3)c2c(=O)[nH]1 [Pemetrexed] + N=C(N)NC(=N)NCCc1ccccc1 [Phenformin] (partner 250 µM)
In outline:
(§1)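 Relative viability divides the nuclei count in treated wells by that in vehicle wells. Lung cancer cell lines were seeded in 1536-well plates, dosed by pin tool the next day, and fixed and stained after 5 days in one step with final 0.05% Triton X-100, 1% formaldehyde and 1 ug/ml Hoechst. Dosing was a single drug or a fixed anchor-drug dose plus five library-drug doses (not always all listed) in √10 steps, and values are medians of duplicate plates imaged at 4×.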

Compound in the test “Pemetrexed + Pictilisib”: Nc1nc2[nH]cc(CCc3ccc(C(=O)N[C@@H](CCC(=O)O)C(=O)O)cc3)c2c(=O)[nH]1 [Pemetrexed] + CS(=O)(=O)N1CCN(Cc2cc3nc(-c4cccc5[nH]ncc45)nc(N4CCOCC4)c3s2)CC1 [Pictilisib] (partner 1 µM)
In outline: as §1

Compound in the test “Idelalisib + Decitabine”: CC[C@H](Nc1ncnc2[nH]cnc12)c1nc2cccc(F)c2c(=O)n1-c1ccccc1 [Idelalisib] + Nc1ncn([C@H]2C[C@H](O)[C@@H](CO)O2)c(=O)n1 [Decitabine] (partner 2 µM)
In outline: as §1

Compound in the test “Idelalisib + Luminespib”: CC[C@H](Nc1ncnc2[nH]cnc12)c1nc2cccc(F)c2c(=O)n1-c1ccccc1 [Idelalisib] + CCNC(=O)c1noc(-c2cc(C(C)C)c(O)cc2O)c1-c1ccc(CN2CCOCC2)cc1 [Luminespib] (partner 0.01 µM)
In outline: as §1

As for UMC-11, the relative viability in the test with Pemetrexed + Phenformin (first compound 0.002 µM) came out at 0.325; with Pemetrexed + Phenformin (first compound 0.006325 µM), 0.311; with Pemetrexed + Phenformin (first compound 0.02 µM) it was 0.312; in the test with Pemetrexed + Phenformin (first compound 0.06325 µM) it was 0.334; in the test with Pemetrexed + Phenformin (first compound 0.2 µM) it was 0.347; in the test with Pemetrexed + Pictilisib (first compound 0.002 µM) it was 0.809. Further, the relative viability came to 0.807 with Pemetrexed + Pictilisib (first compound 0.006325 µM); 0.837 in the test with Pemetrexed + Pictilisib (first compound 0.02 µM); 0.781 with Pemetrexed + Pictilisib (first compound 0.06325 µM); 0.556 with Pemetrexed + Pictilisib (first compound 0.2 µM); 0.698 with Idelalisib + Decitabine (first compound 0.04 µM); 0.595 with Idelalisib + Decitabine (first compound 0.1265 µM). In addition, the relative viability in the test with Idelalisib + Decitabine (first compound 0.4 µM) was determined as 0.577; in the test with Idelalisib + Decitabine (first compound 1.265 µM), 0.609; with Idelalisib + Decitabine (first compound 4 µM) it was 0.333; with Idelalisib + Luminespib (first compound 0.04 µM) it was 0.902; in the test with Idelalisib + Luminespib (first compound 0.1265 µM), 1.13; with Idelalisib + Luminespib (first compound 0.4 µM) it was 1.08. In addition, the relative viability in the test with Idelalisib + Luminespib (first compound 1.265 µM) came out at 1.03; with Idelalisib + Luminespib (first compound 4 µM), 0.949.
